Assay results reported in patent US20160317473A1, “METHODS OF TREATING OR PREVENTING BRAIN DAMAGE DUE TO HYPOXIC-ISCHEMIA” (EMORY UNIVERSITY, priority 2014, published 2016).
“Also recorded” adds a separate entry of the source.

Legend:
[1] = tested on: SM826 microglial cells; assay: LPS-induced activation of immortalized microglia SM826 cells; type: cell-based
Excerpt: These in-vivo and in-vitro results argued against direct inhibition of microglia by FTY720, which prompted us to examine the expression of S1P receptor isoforms in neonatal rat microglia. […] Thus, the effects of pFTY720 and S1P on LPS-induced expression of IL-23 (a key factor for TH17 cell differentiation), TNFα (Tumor Necrosis Factor-alpha), and iNOS mRNA were compared. […] Finally, the effects of S1P and Tat-NBD, an anti-NFKB peptide, were compared on the intracellular signaling responses to LPS in immortalized microglial cells.

[2] = biological target: S1PR2 (Homo sapiens, UniProt O95136); conditions: Mandala et al., 2002; cited from earlier work
Chain of S1PR2 (O95136 whole entry, species assumed): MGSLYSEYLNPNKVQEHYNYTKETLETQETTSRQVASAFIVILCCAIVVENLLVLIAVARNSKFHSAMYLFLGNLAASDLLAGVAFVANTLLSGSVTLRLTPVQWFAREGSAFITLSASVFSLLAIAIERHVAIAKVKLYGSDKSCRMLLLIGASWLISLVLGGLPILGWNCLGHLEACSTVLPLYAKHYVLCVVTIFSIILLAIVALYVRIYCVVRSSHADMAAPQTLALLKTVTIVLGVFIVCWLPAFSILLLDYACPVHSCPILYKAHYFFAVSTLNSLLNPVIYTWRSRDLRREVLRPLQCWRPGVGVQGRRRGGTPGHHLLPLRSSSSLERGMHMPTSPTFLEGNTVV

[3] = tested on: LPS/HI-injured P7 rat pups; assay: LPS-sensitized HI (LPS/HI) brain injury model in P7 rats; type: in vivo
Description: To test whether intrauterine infection accelerates the development of TH17 lymphocytes, the expression of IL-23 receptor (IL-23R) mRNA, a marker of TH17 cells, was compared in aliquots of cord blood mononuclear cells isolated from late preterm neonates (32-36 gestational weeks) with and without histological chorioamnionitis. […] A well-characterized LPS-sensitized HI brain injury model in P7 rats was used to compare the effects of low-dose LPS (0.3 mg/kg, IP), HI, and combined LPS/HI on the expression of IL-23R mRNA in the peripheral blood mononuclear cells.
The effects of FTY720 administration (1 μg/g, IP) after LPS/HI insult in P7 rat pups were examined.
(§1) Flow cytometry we used to compare the percentage of CD4+ IL-17A+T-cells at 24 h after LPS, HI (90 min), or LPS+80 min HI brain injury. A longer duration of pure-HI insult was chosen because 80-min HI produced milder brain damage and little neuroinflammation. The TH17/IL-17 activity was compared under pure-HI (90 min) and LPS/HI (80 min) insults that produce similar levels of brain injury. […] The dual LPS/HI insult led to a significant increase to 21% of CD4+ IL-17A+ T-cells, which was reduced to 12% by FTY720 treatment (FIG. 3A).
(§2) Whether (p)FTY720 exerts direct neuroprotection was investigated. The effects of FTY720 on pure-HI (90 min) and LPS-sensitized HI insult (80 min) were compared reasoning that FTY720 should oppose both insults if its benefits are derived primarily from neuronal protection. Of note, because 80 min pure-HI insult caused little brain damage, a longer duration of pure-HI (90 min) we used in this experiment.
Magnetic resonance imaging (MRI) and behavioral testing were used to assess both acute and long-term effects of FTY720 treatment in LPS/HI injury. […] Two weeks later, the TBSS-identified at-risk gray and white matter became atrophic or distorted in saline-treated rat pups.

[4] = tested on: pure-HI injured rat pups; assay: pure-HI (90 min) brain injury in rat pups; type: in vivo
Description: as §1, §2

[5] = tested on: microglial activation in P7 rats; assay: intracerebroventricular (ICV) injection of LPS in P7 rats, model of direct microglial activation; type: in vivo, rat; conditions: FTY720 1 μg/g IP; LPS 2 μg ICV
Description: (§3) Experiments herein indicate FTY720 primarily blocks brain influx of leukocytes to prevent LPS/HI-induced neuroinflammation. […] To distinguish between these two scenarios, the effects of FTY720 was tested on the MCP1 induction following cerebral ventricle-injection of LPS, a paradigm of direct microglial activation. […] Intracerebroventricular (ICV) injection of LPS was performed in bitransgenic CX3CR1-GFP; CCR2-RFP mice, in which the microglia and circulating monocytes are marked by the green and red fluorescence protein, respectively. In unchallenged mice, the brains were largely devoid of monocytes and the microglial processes were excluded from the hippocampal pyramidal cell layer.

[6] = tested on: microglia and monocytes in CX3CR1-GFP; CCR2-RFP mice; assay: ICV injection of LPS in P10 CX3CR1-GFP; CCR2-RFP mice; type: in vivo; conditions: 24 h after ICV LPS 1 μg; FTY720 1 μg/g
Description: In untouched mice, few GFP+ microglial processes extended into the pyramidal cell layer in the hippocampal (CA), and almost no RFP+ monocytes were detected in the brain.
as §3

[7] = tested on: LPS/HI-injured P10 mice; assay: LPS/HI injury in P10 mice; type: in vivo; conditions: two doses of 25 mg/kg, 16 h pre- & 1 h post-LPS/HI
Description: An experiment was performed to test the effects of SR1001, a small-molecule inhibitor of RORc, in LPS/HI injury in P10 mice.

## CCCCCCCCc1ccc(CCC(N)(CO)COP(=O)(O)O)cc1 (centres unmarked) [phospho-FTY720]
[1]
  LPS-induced IL-23 mRNA: neither phospho-FTY720 nor sphingosine-1-phosphate (S1P) prevented
[1]; 2-10 μM, LPS 5 ng/ml
  LPS-induced COX2 expression: failed to prevent
  LPS-induced iNOS expression: failed to prevent
[1]; up to 10 μM
  microglial activation: LPS-induced expression of IL-23, TNFα and iNOS mRNA: neither pFTY720 nor S1P (up to 10 μM) suppressed
[1]; up to 10 μM, LPS 5 ng/ml
  LPS-mediated induction of IL-1β: failed to attenuate
  LPS-mediated induction of IL-6: failed to attenuate
[2]
  binding affinity to the S1PR2 isoform: lacks binding affinity

## CCCCCCCCc1ccc(CCC(N)(CO)CO)cc1 [FTY720, 2-amino-2-[2-(4-octylphenyl)ethyl]propane-1,3-diol]
[3]; 18-24 h following LPS/HI
  LPS/HI-induced MCP1 expression in the brain (ELISA): markedly reduced; also recorded: significant attenuation
  LPS/HI-induced MCP1 in the plasma (ELISA): failed to prevent
  post-LPS/HI induction of TSPO mRNA (marker for activated microglia): markedly reduced
[3]; 4 h after LPS/HI
  ribbon-like CD43 immunoreactivity in the ipsilateral choroid plexus: preserved; also recorded: less pronounced
[3]; 4 h after LPS/HI, FTY720 1 μg/g IP
  IL-23R mRNA levels in peripheral blood mononuclear cells (normalized to actin): blocked the increase
[3]; 4 h post-LPS/HI
  influx of CD43+ leukocytes in choroid plexus / ipsilateral subcortical white matter: mitigated the influx; also recorded: absence of CD43+ cells; also recorded: not in the contralateral hemisphere or after the FTY720 treatment
[3]; 4 h recovery from LPS/HI
  nuclear NF-κB activity (EMSA, brain nuclear extract): greatly reduced; also recorded: prevented the high-order DNA-protein complex
  reduction/degradation of cytoplasmic IκBα in the ipsilateral hemisphere: greatly reduced; also recorded: averted
[3]; 24 h after LPS/HI
  BBB permeability (NaF fluorescence / extravasation): markedly attenuated; also recorded: significantly reduced
  MMP9 induction/activity in ipsilateral hemisphere (zymogram): diminished; also recorded: absence of MMP9 induction
[3]; 24 h after LPS/HI, vs saline
  ADC (apparent diffusion coefficient) signals in the cerebral cortex (MRI): mitigated; also recorded: significant preservation
[3]; 24 h after LPS/HI, 9.7-fold without treatment
  increase of brain MCP1 protein (cytokine array): 3 fold
[3]; 24 h post-LPS/HI
  brain cytoarchitectural distinctions in the ipsilateral hemisphere (MEMRI): preserved
[3]; 24 h recovery
  increased sodium concentration in the ipsilateral hemisphere (sodium MRI): mitigated
[3]; 24 h recovery after LPS/HI
  CD43+ leukocytes in the cortical gray matter: absent
  accumulation of CD43+ leukocytes in the leptomeningeal space: prevented the accumulation
[3]; 24 days of age after LPS/HI
  latency to fall on rotarods: near-normal
[3]; LPS/HI injury
  brain atrophy: dose-dependent reduction
[3]; RT-PCR
  LPS/HI-induced brain Gata3 mRNA: not
  LPS/HI-induced brain IL-13 mRNA: not
  LPS/HI-induced brain IL-17A mRNA: significantly decreased
  LPS/HI-induced brain IL-23 receptor mRNA: significantly decreased
  LPS/HI-induced brain RORc mRNA: significantly decreased
  LPS/HI-induced brain Tbx21/T-bet mRNA: significantly attenuated; also recorded: significantly decreased
[3]; by 24 days of age after LPS/HI
  gain in body weight: near-normal gain
[3]; rat, in vivo
  impairment of neonatal development: does not impair neonatal development
[3]; treatment started within 30 min after injury
  LPS/HI-induced tissue loss salvaged in the hippocampus and the cerebral cortex: > 90%
[4]; 24 h recovery, pure-HI
  HI-induced MMP9 activation in ipsilateral cortical hemisphere (zymogram): failed to prevent
[4]; pure-HI 90 min, acute FTY720 treatment
  brain atrophy / injury after pure-HI: failed to prevent; also recorded: ineffective
[4]; rat, in vivo
  worsening of pure-HI brain injury: does not impair neonatal development or worsen pure-HI brain injury
[5]
  induction of MCP1 after ICV injection of LPS: unable to prevent
[6]
  microglial processes in hippocampal pyramidal cell layer and monocytes in the brain: showed intrusion of hypertrophic microglia processes in the hippocampal pyramidal cell layer and a massive influx of monocytes; also recorded: hypertrophic microglial processes extended into the pyramidal cell layer and a large number of monocytes were found in the brain

## CC(=O)Nc1nc(C)c(S(=O)(=O)Nc2ccc(C(O)(C(F)(F)F)C(F)(F)F)cc2)s1 [SR1001, N-(5-(N-(4-(1,1,1,3,3,3-hexafluoro-2-hydroxypropan-2-yl)phenyl)sulphamoyl)-4-methylthiazol-2-yl)acetamide]
[7]
  brain atrophy (tissue loss): significantly reduced
  induction of TH17 cells: significantly reduced
  microglial activation/TSPO marker: significantly reduced

## CCCCCCCCCCCCC/C=C/[C@@H](O)[C@@H](N)COP(=O)(O)O [S1P, sphingosine-1-phosphate]
[1]
  LPS-induced IL-23 mRNA: neither phospho-FTY720 nor sphingosine-1-phosphate (S1P) prevented
[1]; 5, 20 μM, LPS 5 ng/ml, 30 min
  LPS-induced IκBα degradation in the cytosol (immunoblot): no opposing effects; also recorded: lacked this effect
  LPS-induced nuclear accumulation of NFκB/RelA (immunoblot): no opposing effects; also recorded: lacked this effect
[1]; negative feedback of the signaling pathway
  S1PR1 mRNA: dose-dependent reduction
[1]; up to 10 μM
  microglial activation: LPS-induced expression of IL-23, TNFα and iNOS mRNA: neither pFTY720 nor S1P (up to 10 μM) suppressed
